The values below come from US5073493A, “Monoclonal antibody NKY13” (Ikuo Yamashina, priority 1987, dated 1991).

Experiment [1] concerns the target binding of the NKY13 to G-50I. Nature of the experiment: Inhibition of the binding of NKY13 to G-50I by sugar chains. Set-up: species or system mouse. The settings on record: inhibition of binding of NKY13 to G-50I by the sugar chain. As for the experimental part:
Bovine serum albumin (1%) is added to wells of poly(vinyl chloride) on which, through the mediation of polylysine and glutaraldehyde, is immobilized mucin-type glycopeptide (G-50I) that is isolated from human intestinal cancer cells SW1116 or LS180. After allowing it to stand for 1 hr, the wells are washed, and then a monoclonal antibody NKY13 is added thereto and allowed to react overnight. After washing the wells, Protein A labelled with ^125 I is added, which is allowed to react for 2 hr. After washing the wells, the affinity of NKY13 is measured, taking as index the radioactivity of ^125 I combined with the well.
(§1) Structure of sugar chains recognized by monoclonal antibody NKY13 was investigated on the basis of the inhibition of the binding of the NKY13 to G-50I by the following sugar chains according to the above method. The same test was performed on NS19-9.

In a further experiment the target is NS19-9. In words: Inhibition of NS19-9 binding by sugar chains (same test performed on NS19-9). Conditions: read-out: 50% INHIBITION (μM) NS19-9. Here is the method: as §1

Regarding `CC(=O)N[C@H]1[C@H](O[C@H]2[C@@H](O)[C@@H](CO)O[C@@H](O[C@H]3[C@H](O)[C@@H](O)C(O)O[C@@H]3CO)[C@@H]2O)O[C@H](CO)[C@@H](O[C@@H]2O[C@@H](C)[C@@H](O)[C@@H](O)[C@@H]2O)[C@@H]1O[C@@H]1O[C@H](CO)[C@H](O)[C@H](O[C@]2(C(=O)O)C[C@H](O)[C@@H](NC(C)=O)[C@H]([C@H](O)[C@H](O)CO)O2)[C@H]1O` (stereo partly shown), the IC50 came to 1.86 µM in experiment [1] and 11.1 µM on NS19-9.

Turning to `CC(=O)N[C@H]1[C@H](O[C@H]2[C@@H](O)[C@@H](CO)O[C@@H](O[C@H]3[C@H](O)[C@@H](O)C(O)O[C@@H]3CO)[C@@H]2O)O[C@H](CO[C@]2(C(=O)O)C[C@H](O)[C@@H](NC(C)=O)[C@H]([C@H](O)[C@H](O)CO)O2)[C@@H](O)[C@@H]1O[C@@H]1O[C@H](CO)[C@H](O)[C@H](O[C@]2(C(=O)O)C[C@H](O)[C@@H](NC(C)=O)[C@H]([C@H](O)[C@H](O)CO)O2)[C@H]1O` (stereo partly shown), the IC50 was determined as 320 µM in experiment [1] and 3550 µM on NS19-9.

As to `CC(=O)N[C@H]1[C@H](O[C@H]2[C@@H](O)[C@@H](CO)O[C@@H](O[C@H]3[C@H](O)[C@@H](O)C(O)O[C@@H]3CO)[C@@H]2O)O[C@H](CO)[C@@H](O)[C@@H]1O[C@@H]1O[C@H](CO)[C@H](O)[C@H](O[C@]2(C(=O)O)C[C@H](O)[C@@H](NC(C)=O)[C@H]([C@H](O)[C@H](O)CO)O2)[C@H]1O` (stereo partly shown), the IC50 in experiment [1] turned out to be 320 µM; on NS19-9, 3550 µM.

`CC(=O)N[C@H]1[C@H](O[C@H]2[C@@H](O)[C@@H](CO)O[C@@H](O[C@H]3[C@H](O)[C@@H](O)C(O)O[C@@H]3CO)[C@@H]2O)O[C@H](CO[C@]2(C(=O)O)C[C@H](O)[C@@H](NC(C)=O)[C@H]([C@H](O)[C@H](O)CO)O2)[C@@H](O)[C@@H]1O[C@@H]1O[C@H](CO)[C@H](O)[C@H](O)[C@H]1O` (stereo partly shown): the IC50 (in experiment [1]; on NS19-9) was above 10000 µM throughout.

For `CC(=O)N[C@H]1[C@H](O[C@H]2[C@@H](O)[C@@H](CO)O[C@@H](O[C@H]3[C@H](O)[C@@H](O)C(O)O[C@@H]3CO)[C@@H]2O)O[C@H](CO)[C@@H](O[C@@H]2O[C@@H](C)[C@@H](O)[C@@H](O)[C@@H]2O)[C@@H]1O[C@@H]1O[C@H](CO)[C@H](O)[C@H](O)[C@H]1O` (stereo partly shown), the figures for the IC50 (in experiment [1]; on NS19-9) were above 10000 µM and 2320 µM, respectively.

For the molecule `CC(=O)N[C@H]1[C@H](O[C@H]2[C@@H](O)[C@@H](CO)O[C@@H](O[C@H]3[C@H](O)[C@@H](O)C(O)O[C@@H]3CO)[C@@H]2O)O[C@H](CO)[C@@H](O[C@@H]2O[C@@H](C)[C@@H](O)[C@@H](O)[C@@H]2O)[C@@H]1O[C@@H]1O[C@H](CO)[C@H](O)[C@H](O)[C@H]1O[C@@H]1O[C@@H](C)[C@@H](O)[C@@H](O)[C@@H]1O` (stereo partly shown), the IC50 (in experiment [1]; on NS19-9) was above 10000 µM each time.

For `CC(=O)N[C@H]1[C@H](O[C@H]2[C@@H](O)[C@@H](CO)O[C@@H](O[C@H]3[C@H](O)[C@@H](O)C(O)O[C@@H]3CO)[C@@H]2O)O[C@H](CO)[C@@H](O)[C@@H]1O[C@@H]1O[C@H](CO)[C@H](O)[C@H](O)[C@H]1O` (stereo partly shown), the IC50 (in experiment [1]; on NS19-9) was above 10000 µM in each case.

In the case of `CC(=O)N[C@H]1[C@H](O[C@H]2[C@@H](O)[C@@H](CO)O[C@@H](O[C@H]3[C@H](O)[C@@H](O)C(O)O[C@@H]3CO)[C@@H]2O)O[C@H](CO)[C@@H](O[C@@H]2O[C@H](CO)[C@H](O)[C@H](O)[C@H]2O)[C@@H]1O[C@@H]1O[C@@H](C)[C@@H](O)[C@@H](O)[C@@H]1O` (stereo partly shown), the IC50 (in experiment [1]; at NS19-9) was above 10000 µM each time.

As to `C[C@@H]1OC(O)[C@@H](O)[C@H](O)[C@@H]1O` (stereo partly drawn) [L-Fucose], the results for the IC50 (in experiment [1]; at NS19-9) were above 10000 µM and 14000 µM, respectively.

For `CC(=O)N[C@H]1[C@H]([C@H](O)[C@H](O)CO)OC(O)(C(=O)O)C[C@@H]1O` (stereo partly shown) [NeuAc], the IC50 is 9000 µM in experiment [1] and above 10000 µM at NS19-9.

As for `O=C(CO)N[C@H]1[C@H]([C@H](O)[C@H](O)CO)OC(O)(C(=O)O)C[C@@H]1O` (stereo partly shown) [NeuGc], the IC50 in experiment [1] was 9000 µM; on NS19-9, above 10000 µM.
